Experiment [1] concerns the target T1, MC4 receptor (MC4R) (Homo sapiens, UniProt P32245).
T1 construct: expressed in transfected cells; host or cells: CHO-CRE MC4R cells (membranes)
The experiment is described as follows: AGRP inhibition: competition binding vs [125I]AGRP(87-132) at CHO-CRE MC4R cell membranes. The conditions noted are these: vs 0.3 nM [125I]AGRP(87-132). The text has this: Agouti related protein (AGRP) is a high affinity endogenous antagonist/inverse agonist for the MC4 receptor (Lu et al., 1994, Nature 371: 799-802; Oilman et al., 1997, Science 278: 135-138). […] It has been ascertained that this C-terminal fragment of AGRP contains the MC4R binding determinants (Yang et al., 1999, Mol Endocrinol 13: 148-155), therefore, compounds can be evaluated for their ability to inhibit AGRP binding to membranes from cells expressing the MC4R using a competition binding assay versus [^125I]AGRP(87-132). To this end cells expressing the MC4R were subject to homogenisation and the membrane fragment isolated by differential centrifugation. CHO-CRE MC4R cell membranes (12 μg protein) were incubated with 0.3 nM [^125I]AGRP(87-132) and 11 half-log concentrations of competitor ligand, in duplicate, in a total volume of 100 μl buffer (25 mM HEPES, 1 mM MgCl2, 2.5 mM CaCl2, 0.5% BSA pH 7.0). Non-specific binding was determined by the inclusion of 1 μM SHU9119. The reaction was initiated by the addition of membranes and plates were incubated at room temperature for 2 hours. The reaction was terminated by rapid filtration onto GF/C filters (presoaked in 1% PEI) using a vacuum harvester followed by five 200 μl washes of ice cold wash buffer (Binding buffer containing 500 mM NaCl). The filters were soaked in 50 μl scintillation fluid and the amount of radioactivity present was determined by liquid scintillation counting. Ki values were determined by data analysis using appropriate software.

In experiment [2] the target is MC4 receptor (Homo sapiens, UniProt P32245). Briefly: MC4 functional agonist potency (EC50), assay protocol E of US2005/0176772 / WO 2005/077935. Conditions: functional potency at the MC4 receptor. Format: cell-based. As for the experimental part:
The compounds of formula (I) of the present invention have utility as MCR4 agonists in the treatment of various disease states.
MC5 and MC4 EC50 activity was determined as described by assay protocols D and E, respectively, in US2005/0176772 (pages 28-30).

The target of experiment [3] is T2, MC3 receptor (MC3R) (Homo sapiens, UniProt P41968).
T2 construct: expressed in transfected cells; host or cells: CHO-CRE MC3R cells (membranes)
Briefly: Nle4, D-Phe7-α-MSH inhibition at the MC3 receptor (SPA competition binding). The conditions noted are these: vs 0.06 nM Nle4, D-Phe7-α-MSH, CHO-CRE MC3R cell membranes. An excerpt: Nle4, D-Phe7-α-MSH Inhibition at the MC3 Receptor
Nle4, D-Phe7-α-MSH is a stable analogue of melanocyte-stimulating hormone (MSH), which is an agonist at the MC3 receptor (MC3R). Compounds can be evaluated for their ability to inhibit Nle4, D-Phe7-α-MSH binding to membranes from cells expressing the MC3R using a competition binding assay versus [^125I] Nle4, D-Phe7-α-MSH.
Cells expressing the MC3R were subject to homogenisation and the membrane fragment isolated by differential centrifugation. CHO-CRE MC3R cell membranes were coupled to PVT-PEI-WGA SPA Beads type A for 2 hours, spun at 1000 RPM for 5 mins and suspended to a final assay concentration of 800 ug bead/ml (1.2 ug membrane, 40 ug bead per well). Bead/membrane mix was incubated with 0.06 nM Nle4, D-Phe7-α-MSH and 11 half-log concentrations of competitor ligand, in duplicate, in a total volume of 50 μl buffer per well (25 mM HEPES, 1 mM MgCl2, 2.5 mM CaCl2, 1% Pluronic F68, 1 complete EDTA protease inhibitor tablet/50 ml pH7).
Non-specific binding was determined by the inclusion of 100 nM SHU9119. The reaction was initiated by the addition of bead/membranes and plates were incubated at room temperature for 12 hours (the first hour on a plate shaker), after which the amount of radioactivity present was determined using a Wallac plate counter. Ki values were determined by data analysis using appropriate software.

Molecules are shown by their SMILES.

T1 sequence (P32245 whole entry): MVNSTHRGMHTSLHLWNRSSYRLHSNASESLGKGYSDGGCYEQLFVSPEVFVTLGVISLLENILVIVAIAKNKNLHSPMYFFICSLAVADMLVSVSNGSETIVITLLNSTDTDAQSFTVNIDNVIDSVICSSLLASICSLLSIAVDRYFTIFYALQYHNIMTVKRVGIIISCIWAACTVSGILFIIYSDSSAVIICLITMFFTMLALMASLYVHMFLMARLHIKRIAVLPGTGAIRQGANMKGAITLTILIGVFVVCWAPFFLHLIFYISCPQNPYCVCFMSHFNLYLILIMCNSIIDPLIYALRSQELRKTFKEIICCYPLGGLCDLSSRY
Sequence of MC4 receptor (P32245 whole entry): as above
T2 sequence (P41968 whole entry): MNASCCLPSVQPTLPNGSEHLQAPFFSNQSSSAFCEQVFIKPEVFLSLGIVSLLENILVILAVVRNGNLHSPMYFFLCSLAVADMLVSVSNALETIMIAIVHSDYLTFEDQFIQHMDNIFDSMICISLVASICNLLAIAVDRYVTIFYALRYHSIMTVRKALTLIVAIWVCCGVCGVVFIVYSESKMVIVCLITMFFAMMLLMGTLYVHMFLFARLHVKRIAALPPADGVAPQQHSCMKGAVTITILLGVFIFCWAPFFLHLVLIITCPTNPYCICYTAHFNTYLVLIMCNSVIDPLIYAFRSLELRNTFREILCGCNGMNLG

On to `C[C@@H]1CN(C(=O)[C@@H]2CN(c3ccc(C#N)cn3)C[C@H]2c2ccc(Cl)cn2)C[C@H](C)[C@@]1(O)c1ccc(F)cc1` [Example 1, 6-[(3S,4S)-3-(5-Chloropyridin-2-yl)-4-{[(3R,4R,5S)-4-(4-fluorophenyl)-4-hydroxy-3,5-dimethylpiperidin-1-yl]carbonyl}pyrrolidin-1-yl]nicotinonitrile], for which the Ki in experiment [1] is 39 nM. In experiment [2], this molecule had an EC50 of less than 0.52 nM.

As to `COc1ccc(N2C[C@@H](C(=O)N3C[C@@H](C)[C@](O)(c4ccc(F)cc4)[C@@H](C)C3)[C@H](c3ccc(Cl)cn3)C2)nn1` [Example 4, (3R,4R,5S)-1-{[(3S,4S)-4-(5-chloropyridin-2-yl)-1-(6-methoxypyridazin-3-yl)pyrrolidin-3-yl]carbonyl}-4-(4-fluorophenyl)-3,5-dimethylpiperidin-4-ol], the Ki in experiment [1] stood at 51 nM. This lies in the double-digit nanomolar range.

`C[C@@H]1CN(C(=O)[C@@H]2CN(c3ccc(Cl)nn3)C[C@H]2c2ccc(F)cn2)C[C@H](C)[C@@]1(O)c1ccc(Cl)cc1` [Example 5, (3R,4R,5S)-4-(4-chlorophenyl)-1-{[(3S,4S)-1-(6-chloropyridazin-3-yl)-4-(5-fluoropyridin-2-yl)pyrrolidin-3-yl]carbonyl}-3,5-dimethylpiperidin-4-ol]: in experiment [1], the Ki was determined as 552 nM. A half-maximal response in experiment [2] (EC50) required 137 nM.

In the case of `C[C@@H]1CN(C(=O)[C@@H]2CN(c3ccc(=O)[nH]n3)C[C@H]2c2ccc(F)cn2)C[C@H](C)[C@@]1(O)c1ccc(Cl)cc1` [Example 6, 6-[(3S,4S)-3-{[(3R,4R,5S)-4-(4-chlorophenyl)-4-hydroxy-3,5-dimethylpiperidin-1-yl]carbonyl}-4-(5-fluoropyridin-2-yl)pyrrolidin-1-yl]pyridazin-3(2H)-one], in experiment [1], the Ki is 456 nM. Besides, the EC50 in experiment [2] is 18.9 nM.

In turn, `C[C@@H]1CN(C(=O)[C@@H]2CN(c3ccc(=O)n(C)n3)C[C@H]2c2ccc(F)cn2)C[C@H](C)[C@@]1(O)c1ccc(Cl)cc1` [Example 7, 6-[(3S,4S)-3-{[(3R,4R,5S)-4-(4-chlorophenyl)-4-hydroxy-3,5-dimethylpiperidin-1-yl]carbonyl}-4-(5-fluoropyridin-2-yl)pyrrolidin-1-yl]-2-methylpyridazin-3(2H)-one] had a Ki in experiment [1] of 714 nM. In experiment [2], this molecule displayed an EC50 of 40 nM.

`C[C@@H]1CN(C(=O)[C@@H]2CN(c3cncc(F)c3)C[C@H]2c2ccc(Cl)cn2)C[C@H](C)[C@@]1(O)c1ccccn1` [Example 8, (3R,4R,5S)-1-{[(3S,4S)-4-(5-chloropyridin-2-yl)-1-(5-fluoropyridin-3-yl)pyrrolidin-3-yl]carbonyl}-3,5-dimethyl-4-pyridin-2-ylpiperidin-4-ol] came in with a Ki in experiment [1] of 643 nM. Also, in experiment [2], the response was half-maximal at 27.5 nM (EC50).

`C[C@@H]1CN(C(=O)[C@@H]2CN(c3cccnn3)C[C@H]2c2ccc(Cl)cn2)C[C@H](C)[C@@]1(O)c1ccccn1` [Example 9, (3R,4R,5S)-1-{[(3S,4S)-4-(5-chloropyridin-2-yl)-1-pyridazin-3-ylpyrrolidin-3-yl]carbonyl}-3,5-dimethyl-4-pyridin-2-ylpiperidin-4-ol] showed a Ki in experiment [1] of 523 nM. Also, the EC50 in experiment [2] turned out to be 39.3 nM.

Take `COc1ccc(C2CN(c3ccc(C#N)nn3)CC2C(=O)N2CC(C)C(O)(c3ccc(F)cc3)C(C)C2)cn1` (centres unmarked) [Example 16]: the Ki in experiment [1] worked out at 251 nM. For the same molecule, in experiment [2], it took 34.3 nM to reach a half-maximal effect (EC50).

In turn, `C[C@@H]1CN(C(=O)[C@@H]2CN(c3ccc(=O)n(C)n3)C[C@H]2c2ccc(Cl)cn2)C[C@H](C)[C@@]1(O)C1CC1` [Example 18] came in with a Ki in experiment [1] of 965 nM. Besides, the EC50 in experiment [2] came out at 55.5 nM.

As for `CC1CN(C(=O)C2CN(c3ccc(=O)n(C)n3)CC2c2ccc(Cl)cn2)CC(C)C1(O)c1ccccc1` (centres unmarked) [Example 21], in experiment [1], the Ki stood at 66 nM. In experiment [2], this molecule returned an EC50 of 2.81 nM.

As to `C[C@@H]1CN(C(=O)[C@@H]2CN(c3ccc(=O)n(C)n3)C[C@H]2c2ccc(Cl)cn2)C[C@H](C)[C@@]1(O)c1ccccn1` [Example 22], the Ki in experiment [1] is 5960 nM; in experiment [3], 5560 nM. In experiment [2], the EC50 amounted to 19.8 nM.

`CC1CN(C(=O)C2CN(c3cncc(F)c3)CC2c2ccc(Cl)cn2)CC(C)C1(O)C1CC1` (centres unmarked) [Example 24] showed a Ki in experiment [1] greater than 955 nM. The same molecule showed an EC50 in experiment [2] of 59.3 nM.

The molecule `COc1ccc(N2CC(C(=O)N3CC(C)C(O)(C4CC4)C(C)C3)C(c3ccc(Cl)cn3)C2)nn1` (centres unmarked) [Example 26] registered a Ki in experiment [1] of 363 nM. In experiment [2], this molecule gave an EC50 of 22.5 nM.

In the case of `CC1CN(C(=O)C2CN(c3ccc(=O)[nH]n3)CC2c2ccc(Cl)cn2)CC(C)C1(O)c1ccccc1` (centres unmarked) [Example 27], the Ki in experiment [1] worked out at 100 nM. This molecule yielded an EC50 in experiment [2] of 4.54 nM.

On to `C[C@@H]1CN(C(=O)[C@@H]2CN(c3ccc(=O)[nH]n3)C[C@H]2c2ccc(Cl)cn2)C[C@H](C)[C@@]1(O)c1ccccn1` [Example 28], for which the Ki in experiment [1] turned out to be 516 nM; in experiment [3], 1670 nM. The molecule further returned a 50% effective concentration (EC50) in experiment [2] of 24.4 nM.

`CC1CN(C(=O)C2CN(c3ccc(C#N)nn3)CC2c2ccc(Cl)cn2)CC(C)C1(O)c1ccccn1` (centres unmarked) [Example 30] registered a Ki in experiment [1] of 112 nM. A half-maximal effect in experiment [2] (EC50) was put at 5.77 nM.

As for `C[C@@H]1CN(C(=O)[C@@H]2CN(c3ccc(Cl)nn3)C[C@H]2c2ccc(Cl)cn2)C[C@H](C)[C@@]1(O)c1ccccn1` [Example 31], in experiment [1], the affinity, expressed as Ki, was 526 nM. In experiment [2], the midpoint of the response, the EC50, lay at 22.9 nM.

The molecule `CC1CN(C(=O)C2CN(c3ccc(C#N)nn3)CC2c2ccc(F)cn2)CC(C)C1(O)c1ccccc1` (centres unmarked) [Example 33] registered a Ki in experiment [1] of 220 nM. Also, in experiment [2], the EC50 was determined as 13.4 nM.

For the molecule `C[C@@H]1CN(C(=O)[C@@H]2CN(c3ccc(Cl)nn3)C[C@H]2c2ccc(F)cn2)C[C@H](C)[C@@]1(O)c1ccccc1` [Example 35], in experiment [1], the affinity, expressed as Ki, was 386 nM. This molecule had a 50% effective concentration (EC50) in experiment [2] of 62.2 nM.

In experiment [1], `CC1CN(C(=O)C2CN(c3ccc(=O)[nH]n3)CC2c2ccc(F)cn2)CC(C)C1(O)c1ccccc1` (centres unmarked) [Example 37] yielded a Ki of 422 nM.

For `CC1CN(C(=O)C2CN(c3ccc(=O)n(C)n3)CC2c2ccc(F)cn2)CC(C)C1(O)c1ccccc1` (centres unmarked) [Example 39], the Ki in experiment [1] worked out at 751 nM. Compared with the last molecule, the Ki is about 1.8-fold higher.

For `CC1CN(C(=O)C2CN(c3ccc(=O)n(C)n3)CC2c2ccc(F)cn2)CC(C)C1(O)c1ccc(F)cc1` (centres unmarked) [Example 40], in experiment [1], the Ki came out at 430 nM. Further, in experiment [2], the response was half-maximal at 69.8 nM (EC50).

In experiment [1], `COc1ccc([C@@H]2CN(c3ccc(=O)[nH]n3)C[C@H]2C(=O)N2C[C@@H](C)[C@](O)(c3ccc(Cl)cn3)[C@@H](C)C2)nc1` [Example 41] returned a Ki of 3750 nM. This molecule gave an EC50 in experiment [2] of 655 nM.

Take `COc1ccc(C2CN(c3ccc(=O)[nH]n3)CC2C(=O)N2CC(C)C(O)(c3ccc(F)cc3)C(C)C2)nc1` (centres unmarked) [Example 42]: in experiment [1], the Ki was 888 nM. That is a sub-micromolar value.

For the molecule `COc1ccc([C@@H]2CN(c3ccc(C#N)nn3)C[C@H]2C(=O)N2C[C@@H](C)[C@](O)(c3ccc(F)cc3)[C@@H](C)C2)nc1` [Example 43], the inhibition constant Ki in experiment [1] stood at 248 nM. In experiment [2], this molecule showed an EC50 of 49.3 nM.

`CC1CN(C(=O)C2CN(c3ccc(C#N)cn3)CC2c2ccc(C#N)cn2)CC(C)C1(O)c1ccc(F)cc1` (centres unmarked) [Example 45]: in experiment [1], the Ki amounted to 251 nM. Moreover, a half-maximal effect in experiment [2] (EC50) was put at 44.4 nM.

For `C[C@@H]1CN(C(=O)[C@@H]2CN(c3ccc(C#N)nn3)C[C@H]2c2ccc(C#N)cn2)C[C@H](C)[C@@]1(O)c1ccc(F)cc1` [Example 46], the Ki came out at 134 nM in experiment [1] and 551 nM in experiment [3]. Moreover, the midpoint of the response in experiment [2], the EC50, lay at 15 nM.

The record behind these values is patent US8138188B2, “Melanocortin type 4 receptor agonist piperidinoylpyrrolidines” (Pfizer Inc., priority 2006, dated 2012).
